Laboratory results taken from US10736865B2, “Pharmaceutical formulations comprising 9-cis-retinyl esters in a lipid vehicle” (RETINAGENIX THERAPEUTICS, INC., priority 2009, dated 2020).

Assays:
[1] = Plasma retention of 9-cis-retinyl acetate metabolites after single gastric gavage; format: in vivo, C57/Bl6 mice; settings: for Absorption (plasma levels of fatty acid 9-cis-retinyl esters and 9-cis-retinol): compared to canola and rapeseed oils, 50 mg/kg gavage
Experimental: (§1) Analyses of Retinoic Acid and Non-polar Retinoids—All experimental procedures related to extraction, retinoid derivatization and separation of retinoids were done under dim red light provided by a Kodak No. 1 safelight filter (transmittance>560 nm). Retinoic acid extraction from liver was performed as formerly described in, e.g., Batten M L. et al. supra. Analyses of polar retinoids in plasma, eye and liver were performed with an Agilent 1100 HPLC and two tandem normal phase columns: a Varian Microsorb Silica 3 μm, 4.6×100 mm (Varian, Palo Alto, Calif.) and an Ultrasphere-Si, 5 μm, 4.6×250 mm column (Aleman T S, et al. supra). An isocratic normal phase system of hexane: 2-propanol:glacial acetic acid (1000:4.3:[…]; v/v/v) was used for elution at a flow rate of 1 ml/min at 20° C. with detection at 355 nm. Calibration was done with standards of all-trans-retinoic acid and 9-cis-retinoic acid purchased from Sigma-Aldrich. Analyses of non-polar retinoids in plasma, eye and liver were carried out by normal phase HPLC (Ultrasphere-Si, 5 μm, 4.6×250 mm, Beckman, Fullerton, Calif.) with 10% ethyl acetate and 90% hexane at a flow rate of 1.4 ml/min with detection at 325 nm by an HP1100 HPLC with a diode array detector and HP Chemstation A.03.03 software.
Several different oil-based preparations were prepared to test the absorption levels of 9-cis-R-Ac in plasma. More specifically, a single 50 mg/kg dose of 9-cis-retinyl acetate (50 mg/kg) suspended in 4 different vehicle oils was administrated by gastric gavage to 5-week-old C57/Bl6 mice and retinoid levels were determined in the plasma thereafter (n=5 for each time point per group).

[2] = Clinical side effects after single doses of 9-cis-R-Ac; format: in vivo, Rpe65^−/− mice; settings: single doses up to 50 mg/kg in soybean oil
Experimental: Single doses (2-50 mg/kg) of 9-cis-R-Ac in soybean oil were administered to 5-week-old Rpr65Rpe65^−/− mice to test whether the pre-prodrug 9-cis-R-Ac was capable of delivering artificial chromophore to the eye.
(§3) Following dark-adaption for 3 days post-gavage, scotopic single flash ERGs were recorded and eyes were collected to assess 9-cis-retinal levels.

[3] = Retinoid levels in eyes and liver after 14 days of daily dosing; format: in vivo, Rpe65^−/− and C57Bl/6 mice
Experimental: as §1

[4] = 9-cis-retinal levels in the eye after 3 daily doses; format: in vivo, Rpe65^−/− mice
Experimental: as §1

Rpe65^−/− mice [5] = assay: Retinal histology after intermittent and daily administration for 8 weeks; format: in vivo; settings: for Retinal cross-section morphology: 8 weeks
Description: Histology and Immunohistochemistry—Histological procedures employed for the eye analyses as described in Maeda A, et al. supra.
(§2) The dosing regimens are illustrated in FIG. 7.

Rpe65^−/− mice [6] = settings: mouse, in vivo
Experimental: (§4) Briefly, mice first were dark-adapted overnight prior to recording. Then under a safety light, mice were anesthetized by intraperitoneal injection of 20 μl/g body weight of 6 mg/ml ketamine and 0.44 mg/ml xylazine diluted with 10 mM sodium phosphate, pH 7.2, containing 100 mM NaCl. Pupils were dilated with 1% tropicamide. A contact lens electrode was placed on the eye and a reference electrode and ground electrode were positioned on the ear and tail, respectively. ERGs were recorded with the universal testing and electrophysiologic system (UTAS) E-3000 (LKC Technologies, Inc.).
(§5) Single-flash recording—White light flash stimuli were employed with a range of intensities (from −3.7 to 2.8 log cd·s·m^·2), and flash durations were adjusted according to intensity (from 20 μs to 1 ms). Two to five recordings were made at sufficient intervals between flash stimuli (from 10 s to 10 min) to allow mice to recover. Typically, four to eight animals were used for recording each point. The one-way ANOVA test was used for statistical analysis of responses.
Rpe65^−/− mice were split into two groups (an intermittent group and a daily group), each treated for a total of 8 weeks with 1 or 4 mg/kg of 9-cis-R-Ac. […] ERGs were recorded at day 28 and again at day 56, after which tissues were collected for retinoid analyses of the eye and liver and histology of the eye.

[7] = Retinoid levels in eyes after single doses of 9-cis-R-Ac; format: in vivo, Rpe65^−/− mice
Experimental: as §1

Rpe65^−/− mice [8] = settings: mouse, in vivo; remark: listed apart in the source
Experimental: (§6) Electroretinogram (ERG)—ERGs were recorded on anesthetized mice as described in, e.g., Maeda A, et al. Role of photoreceptor-specific retinol dehydrogenase in the retinoid cycle in vivo.
as §4
(§7) Single-flash recording—White light flash stimuli were employed with a range of intensities (from −3.7 to 2.8 log cd·s·m^·2), and flash durations were adjusted according to intensity (from 20 μs to 1 ms). Two to five recordings were made at sufficient intervals between flash stimuli (from 10 s to 10 min) to allow mice to recover. Typically, four to eight animals were used for recording each point. The one-way ANOVA test was used for statistical analysis of responses. […]
as §3

Rpe65^−/− mice [9] = settings: mouse, in vivo; remark: listed apart in the source
Experimental: as §6, §4, §5
To test this directly, 5-week-old Rpe65^−/− mice were gavaged daily with 9-cis-R-Ac in soybean oil at doses of 1, 4, or 12.5 mg/kg for 14 days. […]

[10] = Retinoid analyses of eye and liver after 8-week regimens; format: in vivo, Rpe65^−/− mice; settings: 8-week intermittent and daily regimens
Experimental: as §1, §2

Rpe65^−/− mice [11] = settings: mouse, in vivo; remark: listed apart in the source
Experimental: as §6, §4, §7

SMILES: CC(=O)OC/C=C(C)/C=C/C=C(C)\C=C\C1=C(C)CCCC1(C)C [9-cis-R-Ac, 9-cis-retinyl acetate]
- Plasma levels of all-trans-retinol and fatty acid all-trans-retinyl esters ([1]; among the test vehicles and during the 23 h test period): did not differ significantly
- Absorption (plasma levels of fatty acid 9-cis-retinyl esters and 9-cis-retinol) ([1]; in soybean oil): best absorption
- Absorption (plasma levels of fatty acid 9-cis-retinyl esters and 9-cis-retinol) ([1]; in sunflower oil): best absorption
- Time of highest plasma levels of 9-cis-retinoids ([1]; single 50 mg/kg gastric gavage, C57/Bl6 mice): 3 h
- Clinical side effects [2]: no obvious clinical side effects
- 9-cis-retinal in eyes ([3]; 1 mg/kg daily for 14 days): No 9-cis-retinal was detected
- 9-cis-retinal in eyes ([3]; 4 mg/kg daily for 14 days): 38 ± 4 pmol
- 9-cis-retinal in eyes ([3]; 12.5 mg/kg daily for 14 days): 95 ± 14 pmol
- Fatty acid 9-cis-retinyl esters in eyes ([3]; 4 and 12.5 mg/kg/day groups, 14 days): 1 pmol/eye
- Fatty acid 9-cis-retinyl esters in livers ([3]; daily dosing 14 days, C57Bl/6 and Rpe65^−/− mice): accumulate in a dose-dependent manner
- all-trans-retinol and 9-cis-retinol in eyes ([3]; daily dosing 14 days, any group): Neither all-trans-retinol nor 9-cis-retinol was found
- 9-cis-retinal in the retinas ([4]; day 4, all treated mice (1, 4, 12.5 mg/kg/day for 3 days)): detected
- 9-cis-retinal in the retinas ([4]; day 9, after 3 daily doses): No 9-cis-retinal was found
- Retinal cross-section morphology (Rpe65^−/− mice [5]; 1 mg/kg by either schedule, vs control mice): no significant change
- Retinal cross-section morphology (Rpe65^−/− mice [5]; 4 mg/kg daily or 4 mg/kg intermittent): improvement of rod outer segment (ROS) morphology
- Effect on retina (photoreceptor outer segment lengths, nuclei in outer nuclear layer) (Rpe65^−/− mice [5]; 8-week administration): dose-dependent protective effect
- Dose sufficient for significant improvement in ERG responses over control (Rpe65^−/− mice [6]): 1 mg/kg
- 9-cis-retinol in eyes ([7]; single dose 50 mg/kg): 43 pmol/eye
- 11-cis-retinoids in eyes ([7]; single doses): No 11-cis-retinoids were detected
- 9-cis-retinal in the eye ([7]; single doses 2 and 4 mg/kg): trace levels
- Fatty acid 9-cis-retinyl esters in eyes ([7]; single doses, all analyzed eyes): No fatty acid 9-cis-retinyl esters were detected
- ERG effect of lower doses (Rpe65^−/− mice [8]): positive ERG effects
- Lowest tested dose that provided significant ERG improvement (Rpe65^−/− mice [8]): 6.25 mg/kg
- Lowest daily test dose evoking significant improvement in retinal function (Rpe65^−/− mice [9]): 1 mg/kg
- 9-cis-retinal in the eyes [10]: detected in a dose-dependent manner
- Duration of positive ERG effect after treatment (Rpe65^−/− mice [11]): 4 to 6 days
